The values below come from US7928225B2, “Oxabispidine compounds for the treatment of cardiac arrhythmias” (AstraZeneca AB, priority 2005, dated 2011).

The structures appear in SMILES notation.

In one series the target is T1, HERG channel (Homo sapiens, UniProt Q12809).
T1 construct: expressed in transfected cells
In words: Test B: Rb+-efflux assay for detection of HERG channel blockers. It is filed as cell-based. Conditions: depolarisation-induced Rb+-efflux from Chinese hamster ovary cells stably expressing the HERG-channel. The procedure: Rb^+-Efflux Assay for Detection of HERG Channel Blockers
The human ether-a-go-go related gene (HERG) encodes the voltage-gated K^+ channel underlying the cardiac rapid delayed rectifier current IKr. The IC50 value for HERG channel blockade was determined using a high throughput functional assay based on depolarisation-induced Rb^+-efflux from Chinese hamster ovary cells stably expressing the HERG-channel.
Cells were grown in Ham F12 (Life Technologies 31765-027) supplemented with 10% FBS and 0.6 mg/mL hygromycin B and were routinely passaged twice-weekly. For experimental studies, cells were plated at a density of 15,000 cells/well in Falcon, 384-well tissue culture-treated black-walled clear-bottomed plates and were thereafter incubated overnight at 37° C. in a cell culture incubator.
Following incubating overnight, cell plates were washed and a Rb^+-Load buffer (a physiological buffer containing Rb^+) was added. Cell plates were then incubated for 3 hours and were thereafter washed. Following this wash, the test compounds were added. The cell plates were then incubated for another 10 minutes and, following this incubation period, external K^+ concentration was increased in order to depolarize the cells and activate HERG channels. […]
Compound activity was expressed as: […]

Series [1] relates to anaesthetised guinea pigs. In words: Test A: Primary electrophysiological effects in anaesthetised guinea pigs (MAP duration). Particulars: infusion into jugular vein, MAP duration at 75 percent repolarization during pacing, from mean dose-response curve. It is filed as in vivo, guinea pig. The procedure: Primary Electrophysiological Effects in Anaesthetised Guinea Pigs
Guinea pigs weighing between 500 and 1000 g were used. The animals were housed for at least one week before the experiment and had free access to food and tap water during that period.
Anaesthesia was induced by an intraperitoneal injection of pentobarbital (50 to 60 mg/kg) and catheters were introduced into one carotid artery (for blood pressure recording and blood sampling) and into one jugular vein (for drug infusions). Needle electrodes were placed on the limbs for recording of ECGs (lead II). […]
The left ventricular epicardium was exposed by a left-sided thoracotomy, and a custom-designed suction electrode for recording of the monophasic action potential (MAP) was applied to the left ventricular free wall. The electrode was kept in position as long as an acceptable signal could be recorded, otherwise it was moved to a new position. […]
Of the numerous variables measured in this analysis, three were selected as the most important for comparison and selection of active compounds. […] Systolic and diastolic blood pressure were measured in order to judge the haemodynamic status of the anaesthetised animal. […]
The mean of the two control recordings was set to zero and the effects recorded after consecutive doses of test substance were expressed as percentage changes from this value. […]

T1 sequence (Q12809 whole entry): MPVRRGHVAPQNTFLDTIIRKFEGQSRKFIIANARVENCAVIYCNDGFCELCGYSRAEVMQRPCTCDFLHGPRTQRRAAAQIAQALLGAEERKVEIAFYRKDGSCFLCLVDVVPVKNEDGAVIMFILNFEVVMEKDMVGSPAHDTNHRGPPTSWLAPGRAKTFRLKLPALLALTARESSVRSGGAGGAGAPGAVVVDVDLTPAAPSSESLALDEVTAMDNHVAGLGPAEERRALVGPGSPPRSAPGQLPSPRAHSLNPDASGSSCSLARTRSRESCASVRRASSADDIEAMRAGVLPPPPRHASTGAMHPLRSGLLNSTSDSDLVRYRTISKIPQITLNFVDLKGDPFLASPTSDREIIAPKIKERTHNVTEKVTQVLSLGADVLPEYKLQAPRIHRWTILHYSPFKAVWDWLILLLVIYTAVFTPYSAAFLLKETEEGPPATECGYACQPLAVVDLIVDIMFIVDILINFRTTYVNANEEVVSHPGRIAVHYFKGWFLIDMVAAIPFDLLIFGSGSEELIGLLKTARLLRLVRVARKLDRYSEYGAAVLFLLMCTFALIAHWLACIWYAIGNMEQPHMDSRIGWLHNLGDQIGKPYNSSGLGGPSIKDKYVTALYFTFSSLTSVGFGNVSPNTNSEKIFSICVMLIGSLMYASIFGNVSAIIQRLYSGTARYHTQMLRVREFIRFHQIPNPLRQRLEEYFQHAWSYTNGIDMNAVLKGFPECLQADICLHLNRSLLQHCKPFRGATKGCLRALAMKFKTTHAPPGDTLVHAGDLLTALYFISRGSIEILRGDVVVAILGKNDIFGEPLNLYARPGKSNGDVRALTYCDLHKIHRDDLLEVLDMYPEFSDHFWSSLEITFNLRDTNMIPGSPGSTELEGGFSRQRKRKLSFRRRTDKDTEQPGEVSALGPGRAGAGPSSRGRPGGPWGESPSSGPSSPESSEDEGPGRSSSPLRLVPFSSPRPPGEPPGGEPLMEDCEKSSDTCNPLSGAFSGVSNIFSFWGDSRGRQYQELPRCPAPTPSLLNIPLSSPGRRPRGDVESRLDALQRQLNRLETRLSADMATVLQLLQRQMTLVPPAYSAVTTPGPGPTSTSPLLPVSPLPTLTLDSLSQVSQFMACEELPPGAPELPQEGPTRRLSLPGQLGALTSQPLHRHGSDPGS

Take `CC(C)(C)OC(=O)NCCN1CC2CN(CCOc3ccc(C#N)cc3F)CC(C1)O2` [Example 2, tert-Butyl (2-{7-[2-(4-cyano-2-fluorophenoxy)ethyl]-9-oxa-3,7-diazabicyclo-[3.3.1]non-3-yl}ethyl)carbaamate]: the “pIC50 for HERG channel blockade” value against HERG channel is 5.0. The “D10 (cumulative dose prolonging the MAP duration by 10% from the baseline; index of class III electrophysiological potency)” value in series [1] is on record as 6.3.

Consider `CC(C)(C)OC(=O)NCCCN1CC2CN(CCCOc3ccc(C#N)cc3)CC(C1)O2` [Example 5], for which the “pIC50 for HERG channel blockade” value at HERG channel came out at 6.19. The “D10 (cumulative dose prolonging the MAP duration by 10% from the baseline; index of class III electrophysiological potency)” value in series [1] amounted to 6.8.
